Data: patent US11753408B2, “Compounds and method for blocking transmission of malarial parasite” (The United States of America, as represented by the …, priority 2016, dated 2023)
Where two headings read alike, the source gives them in different places.

Columns and labels:
[1] = Microsomal stability (rat); assay type: in vitro ADME; conditions: rat microsomes
PAMPA permeability = assay type: in vitro ADME; conditions: PAMPA
Solubility at pH 7.4 = assay type: physicochemical
[2] = system: Stage III-V gametocytes (blood stage P. falciparum parasites); assay: In vitro drug activity on gametocytes (AlamarBlue viability assay); assay type: cell-based, Plasmodium falciparum; conditions: read-out: Gametocyte EC50
Procedure, shortened: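 P. falciparum 3D7 stage III–V gametocytes (also HB3, Dd2), enriched by 50 mM N-acetylglucosamine and Percoll gradient, seeded at 20,000/well with compound for 72 h at 37° C, 5% CO2. AlamarBlue then added for 24 h; viability read as fluorescence (Ex 525, Em 598 nm).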

[3] = system: Asexual parasites of P. falciparum strain 3D7; assay: In vitro drug activity on asexual parasites (SYBR Green assay); assay type: cell-based, Plasmodium falciparum
Procedure, shortened: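 3D7 parasites at 0.5% parasitemia and 2% hematocrit were exposed to drugs (DMSO ≤0.5%) for 72 h under standard culture conditions, in duplicate. After freeze-thaw lysis, SYBR Green I lysis buffer was added for 30 min at room temperature, and fluorescence was read at 490/520 nm.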

mTOR = mTOR (Homo sapiens, UniProt P42345); assay: mTOR activity (no method described); assay type: biochemical
[4] = P. falciparum stage III-V gametocytes, 72 h incubation, AlamarBlue
[5] = P. falciparum 3D7 asexual parasites, 72 h, SYBR Green

Row | SMILES | Microsomal Stability (rat) T1/2 [1] | PAMPA Permeability (×10^6 cm/s) (PAMPA permeability) | Sol @ pH 7.4 (ug/mL) (Solubility at pH 7.4) | EC50 [2, 4] | EC50 [3, 5] | Sol @ pH 7.4 (Solubility at pH 7.4) | mTOR (mTOR) | EC50 [3] | EC50 [2]
1 | CS(=O)(=O)c1cccc(-n2c(=O)ccc3cnc4ccc(-c5ccc(N)nc5)cc4c32)c1 [Compound 80] | 7.1 min | 50.85 ×10^6 cm/s | 49.68 ug/mL | 0.214 µM | – | – | – | – | –
2 | Nc1ccc(-c2ccc3ncc4ccc(=O)n(-c5ccc6c(c5)C(=O)NC6=O)c4c3c2)cn1 [Compound 395] | >30 min | 3.9 ×10^6 cm/s | 11.3 ug/mL | 46 µM | – | – | – | – | –
3 | C[S+]([O-])c1ccc(-n2c(=O)ccc3cnc4ccc(-c5ccc(Cl)cc5)cc4c32)cc1 (centres unmarked) [Compound 59] | 12.8 min | <1.00 ×10^6 cm/s | <0.10 ug/mL | 0.0254 µM | 0.00907 µM | – | – | – | –
4 | O=C(O)CN1Cc2cc(-n3c(=O)ccc4cnc5ccc(-c6ccc(Cl)cc6)cc5c43)ccc2C1=O [Compound 365] | – | <1.8 ×10^6 cm/s | 55.9 ug/mL | 30.6 µM | 0.481 µM | – | – | – | –
5 | COc1cc(-c2ccc3ncc4ccc(=O)n(-c5ccc(S(C)(=O)=O)cc5)c4c3c2)ccc1Cl [Compound 31] | >30.0 min | 40.7 ×10^6 cm/s | <1.0 ug/mL | 0.222 µM | 0.0335 µM | – | – | – | –
6 | CCS(=O)(=O)c1ccc(-n2c(=O)ccc3cnc4ccc(-c5ccc(Cl)cc5)cc4c32)cc1 [Compound 27] | >30.0 min | <1.0 ×10^6 cm/s | <1.0 ug/mL | 0.108 µM | – | – | – | – | –
7 | O=C1NCc2ccc(-n3c(=O)ccc4cnc5ccc(-c6ccc(Cl)cc6)cc5c43)cc21 [Compound 344] | 19.2 min | 238.8 ×10^6 cm/s | <1.0 ug/mL | 1.51 µM | – | – | – | – | –
8 | CN(C)Cc1ccc(-c2ccc3ncc4ccc(=O)n(-c5ccc6c(c5)CCC(=O)N6C)c4c3c2)cc1 [Compound 358] | – | 1209.2 ×10^6 cm/s | >72.00 ug/mL | 2.18 µM | 0.879 µM | – | – | – | –
9 | O=C1NCc2cc(-n3c(=O)ccc4cnc5ccc(-c6ccc(Cl)cc6)cc5c43)ccc21 [Compound 339] | >30.0 min | <1.0 ×10^6 cm/s | <1.0 ug/mL | 0.00919 µM | – | – | – | – | –
10 | Nc1ccc(-c2ccc3ncc4ccc(=O)n(-c5ccc6c(c5)CC(=O)N6)c4c3c2)cn1 [Compound 389] | – | <9.7 ×10^6 cm/s | <1.0 ug/mL | 0.0653 µM | 0.0218 µM | – | – | – | –
11 | CS(=O)(=O)c1ccc(-n2c(=O)ccc3cnc4ccc(-c5ccc(Cl)cc5)cc4c32)cc1CN1CCOCC1 [Compound 66] | 1.4 min | 135 ×10^6 cm/s | <1 ug/mL | 0.35 µM | – | – | – | – | –
12 | CS(=O)(=O)c1ccc(-n2c(=O)ccc3cnc4ccc(-c5ccc(Cl)cc5)cc4c32)cc1N1CCOCC1 [Compound 58] | 13.5 min | 1527.98 ×10^6 cm/s | <0.10 ug/mL | 0.89 µM | – | – | – | – | –
13 | C[S+]([O-])c1ccc(-n2c(=O)ccc3cnc4ccc(-c5ccc(N)nc5)cc4c32)cc1 (centres unmarked) [Compound 81] | – | 5.1 ×10^6 cm/s | 10 ug/mL | 0.0339 µM | – | – | – | – | –
14 | CN(C)Cc1cc(-n2c(=O)ccc3cnc4ccc(-c5ccc(Cl)cc5)cc4c32)ccc1S(C)(=O)=O [Compound 67] | 1.7 min | 1449.1 ×10^6 cm/s | <1 ug/mL | 1.34 µM | – | – | – | – | –
15 | CN(C)Cc1ccc(-c2ccc3ncc4ccc(=O)n(-c5cccc(S(C)(=O)=O)c5)c4c3c2)cc1 [Compound 55] | 9.45 min | 788.14 ×10^6 cm/s | >71.00 ug/mL | 5.33 µM | – | – | – | – | –
16 | CCN(CC)Cc1ccc(-c2ccc3ncc4ccc(=O)n(-c5ccc6c(c5)CNC6=O)c4c3c2)cc1 [Compound 363] | – | 8.76 ×10^6 cm/s | 57.74 ug/mL | 0.86 µM | 0.45 µM | – | – | – | –
17 | CN(C)Cc1cccc(-c2ccc3ncc4ccc(=O)n(-c5ccc(S(C)(=O)=O)cc5)c4c3c2)c1 [Compound 60] | >30.00 min | 1646.44 ×10^6 cm/s | 21.28 ug/mL | 1.95 µM | – | – | – | – | –

Row | SMILES | Microsomal Stability (rat) T1/2 [1] | PAMPA Permeability (×10^6 cm/s) (PAMPA permeability) | Sol @ pH 7.4 (ug/mL) (Solubility at pH 7.4) | EC50 [2, 4] | EC50 [3, 5] | Sol @ pH 7.4 (Solubility at pH 7.4) | mTOR (mTOR) | EC50 [3] | EC50 [2]
18 | O=C(c1ccc(-n2c(=O)ccc3cnc4ccc(-c5ccc(CO)cc5)cc4c32)cc1)N1CCOCC1 [Compound 120] | >30.0 min | – | – | – | – | <1.0 ug/mL | 224.6 nM | 0.0075 µM | 0.0358 µM
19 | COC(=O)CN1Cc2cc(-n3c(=O)ccc4cnc5ccc(-c6ccc(CN(C)C)cc6)cc5c43)ccc2C1=O [Compound 366] | – | 47.8 ×10^6 cm/s | 14.8 ug/mL | 3.76 µM | 1.24 µM | – | – | – | –
20 | O=C(c1ccc(-n2c(=O)ccc3cnc4ccc(-c5ccc(CCN6CCOCC6)cc5)cc4c32)cc1)N1CCOCC1 [Compound 182] | 10.8 min | – | – | – | – | 1.1 ug/mL | 1439 nM | 0.459 µM | 1.48 µM
21 | C[C@@H]1CN(C(=O)c2ccc(-n3c(=O)ccc4cnc5ccc(-c6ccc(Cl)cc6)cc5c43)cc2)C[C@H](C)O1 [Compound 101] | 4.5 min | – | – | – | – | <1.0 ug/mL | 1780 nM | 0.107 µM | 0.305 µM
22 | CN(C)Cc1ccc(-c2ccc3ncc4ccc(=O)n(-c5ccc(N6CCOCC6)c(C#N)c5)c4c3c2)cc1 [Compound 5] | – | 725.27 ×10^6 cm/s | 7.03 ug/mL | 0.508 µM | – | – | – | – | –
23 | Nc1ccc(-c2ccc3ncc4ccc(=O)n(-c5ccc6c(c5)CNC6=O)c4c3c2)cn1 [Compound 388] | – | 2 ×10^6 cm/s | 11.8 ug/mL | 0.0882 µM | 0.0282 µM | – | – | – | –
24 | COC(=O)c1cc(-c2ccc3ncc4ccc(=O)n(-c5ccc(C(=O)N6CCOCC6)cc5)c4c3c2)ccc1Cl [Compound 152] | 3.3 min | – | – | – | – | <1.0 ug/mL | 796.2 nM | 2.21 µM | 4.04 µM
25 | CS(=O)(=O)c1cccc(-n2c(=O)ccc3cnc4ccc(-c5ccc(Cl)cc5)cc4c32)c1 [Compound 56] | >30.00 min | 716.98 ×10^6 cm/s | 0.01 ug/mL | 1.55 µM | – | – | – | – | –
26 | Nc1ccc(-c2ccc3ncc4ccc(=O)n(-c5ccc6c(c5)CCNC6=O)c4c3c2)cn1 [Compound 393] | – | <1.10 ×10^6 cm/s | 6.26 ug/mL | 0.0307 µM | 0.00931 µM | – | – | – | –
27 | Nc1cc(-c2ccc3ncc4ccc(=O)n(-c5ccc(C(=O)N6CCOCC6)cc5)c4c3c2)ccc1Cl [Compound 113] | 13.6 min | – | – | – | – | <1.0 ug/mL | 1370 nM | 0.0299 µM | 0.0759 µM
28 | O=C1NCc2cc(-n3c(=O)ccc4cnc5ccc(-c6ccc(CN7CCC7)cc6)cc5c43)ccc21 [Compound 378] | >30 min | 2.3 ×10^6 cm/s | >70 ug/mL | 1.55 µM | – | – | – | – | –
29 | CS(=O)(=O)c1ccc(-n2c(=O)ccc3cnc4ccc(-c5ccc(N)nc5)cc4c32)cc1N1CCOCC1 [Compound 83] | >30.00 min | 58.31 ×10^6 cm/s | 5.62 ug/mL | 0.0747 µM | – | – | – | – | –
30 | Nc1ccc(-c2ccc3ncc4ccc(=O)n(-c5ccc(C(=O)N6CCOCC6)cc5)c4c3c2)cc1 [Compound 118] | >30.0 min | – | – | – | – | <1.0 ug/mL | 269.1 nM | 0.0066 µM | 0.0296 µM
31 | Cc1ccc(C#N)cc1-n1c(=O)[nH]c2cnc3ccc(-c4ccc(Cl)cc4)cc3c21 [Compound 399] | >30.0 min | – | – | – | – | <1.0 ug/mL | 100000 nM | 0.219 µM | 0.522 µM
32 | COc1cc(-c2ccc3ncc4c(c3c2)n(-c2cccc(C#N)c2)c(=O)n4C)ccc1Cl [Compound 403] | >30.0 min | – | – | – | – | 3.1 ug/mL | 100000 nM | 0.125 µM | 0.262 µM
33 | CCn1c(=O)n(-c2cccc(C#N)c2)c2c3cc(-c4ccc(Cl)cc4)ccc3ncc21 [Compound 440] | >30.0 min | – | – | – | – | <1.0 ug/mL | 100000 nM | 0.787 µM | 2.18 µM
34 | Cc1cc(C(=O)N2CCOCC2)ccc1-n1c(=O)ccc2cnc3ccc(-c4ccc(Cl)cc4)cc3c21 [Compound 110] | 2.2 min | – | – | – | – | 1.1 ug/mL | 9459 nM | 0.0408 µM | 0.139 µM
